US20120142646A1, “Novel Compounds 621” (priority 2006, published 2012)
Counter-ions that a name gives are not always drawn.

Biological target: T1, Adrenergic β2 (Homo sapiens, UniProt P07550)
T1 construct: Adherent H292 cells were removed from tissue culture flasks; endogenous in cells; host or cells: H292 cells
Assay: Adrenergic β2 mediated cAMP production in H292 cells (AlphaScreen cAMP detection)
Type: cell-based
Parameters: key to β2 Int Act: fraction of formoterol maximum activity (formoterol = 1)
Conditions: Intrinsic Activity as a fraction relative to the maximum activity determined for formoterol
Method: Adrenergic β2 Mediated cAMP Production
H292 cells were grown in 225 cm2 flasks incubator at 37° C., 5% CO2 in RPMI medium containing, 10% (v/v) FBS (foetal bovine serum) and 2 mM L-glutamine.
Adherent H292 cells were removed from tissue culture flasks by treatment with Accutase™ cell detachment solution for 15 minutes. Flasks were incubated for 15 minutes in a humidified incubator at 37° C., 5% CO2. Detached cells were re-suspended in RPMI media (containing 10% (v/v) FBS and 2 mM L-glutamine) at 1×10^6 cells per mL. 10000 cells in 100 μL were added to each well of a tissue-culture-treated 96-well plate and the cells incubated overnight in a humidified incubator at 37° C., 5% CO2. The culture media was removed and cells were washed twice with 100 μL assay buffer and replaced with 50 μL assay buffer (HBSS solution containing 10 mM HEPES pH7.4 and 5 mM glucose). Cells were rested at room temperature for 20 minutes after which time 25 μL of rolipram (1.2 mM made up in assay buffer containing 2.4% (v/v) dimethylsulphoxide) was added. Cells were incubated with rolipram for 10 minutes after which time test compounds were added and the cells were incubated for 60 minutes at room temperature. The final rolipram concentration in the assay was 300 μM and final vehicle concentration was 1.6% (v/v) dimethylsulphoxide. The reaction was stopped by removing supernatants, washing once with 100 μL assay buffer and replacing with 50 μL lysis buffer. The cell monolayer was frozen at −80° C. for 30 minutes (or overnight).
AlphaScreen™ cAMP Detection
The concentration of cAMP (cyclic adenosine monophosphate) in the cell lysate was determined using AlphaScreen™ methodology. The frozen cell plate was thawed for 20 minutes on a plate shaker then 10 μL of the cell lysate was transferred to a 96-well white plate. 40 μL of mixed AlphaScreen™ detection beads pre-incubated with biotinylated cAMP, was added to each well and the plate incubated at room temperature for 10 hours in the dark. The AlphaScreen™ signal was measured using an EnVision spectrophotometer (Perkin-Elmer Inc.) with the recommended manufacturer's settings. cAMP concentrations were determined by reference to a calibration curve determined in the same experiment using standard cAMP concentrations. Concentration response curves for agonists were constructed and data was fitted to a four parameter logistic equation to determine both the pEC50 and Intrinsic Activity. Intrinsic Activity was expressed as a fraction relative to the maximum activity determined for formoterol in each experiment.

T1 sequence (P07550 whole entry): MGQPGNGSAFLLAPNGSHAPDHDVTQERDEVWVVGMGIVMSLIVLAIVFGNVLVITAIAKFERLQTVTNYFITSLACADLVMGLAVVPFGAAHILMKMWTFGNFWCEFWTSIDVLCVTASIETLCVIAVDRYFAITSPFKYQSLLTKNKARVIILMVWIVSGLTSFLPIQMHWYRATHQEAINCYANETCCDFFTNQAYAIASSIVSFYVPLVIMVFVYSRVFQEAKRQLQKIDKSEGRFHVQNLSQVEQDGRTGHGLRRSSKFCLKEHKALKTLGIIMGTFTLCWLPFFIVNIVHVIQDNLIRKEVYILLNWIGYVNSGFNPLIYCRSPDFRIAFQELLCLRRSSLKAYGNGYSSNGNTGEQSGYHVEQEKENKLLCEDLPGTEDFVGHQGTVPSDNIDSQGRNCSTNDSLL

| β2 Int Act | Compound |
| --- | --- |
| 0.86 | Cc1cc(CCNCCC(=O)N(CCNCCc2ccc(O)c3c2OCC(=O)N3)C2CCCCCC2)ccc1F [Example 62, N-Cycloheptyl-3-(4-fluoro-3-methylphenethylamino)-N-(2-(2-(5-hydroxy-3-oxo-3,4-dihydro-2H-benzo[b][1,4]oxazin-8-yl)ethylamino)ethyl)propanamide bis(trifluoroacetate)] |
| 0.92 | CCCC[C@@H](C)N(CCNCCc1ccc(O)c2c1OCC(=O)N2)C(=O)CCNCCc1ccc(Cl)c(Cl)c1 [Example 55, (R)-3-(3,4-Dichlorophenethylamino)-N-(hexan-2-yl)-N-(2-(2-(5-hydroxy-3-oxo-3,4-dihydro-2H-benzo[b][1,4]oxazin-8-yl)ethylamino)ethyl)propanamide bis(trifluoroacetate)] |
| 0.87 | O=C1COc2c(CCNCCN(C(=O)CCNCCc3ccc(F)c(F)c3)C3CCCCCC3)ccc(O)c2N1 [Example 67, N-Cycloheptyl-3-(3,4-difluorophenethylamino)-N-(2-(2-(5-hydroxy-3-oxo-3,4-dihydro-2H-benzo[b][1,4]oxazin-8-yl)ethylamino)ethyl)propanamide bis(trifluoroacetate)] |
| 1.1 | O=C1COc2c(CCNCCN(C(=O)CCOCCc3ccccc3F)C3CCCCC3)ccc(O)c2N1 [Example 76, N-Cyclohexyl-3-(2-fluorophenethoxy)-N-(2-(2-(5-hydroxy-3-oxo-3,4-dihydro-2H-benzo[b][1,4]oxazin-8-yl)ethylamino)ethyl)propanamide trifluoroacetate] |
| 0.93 | O=C1COc2c(CCNCCN(C(=O)CCNCCc3cccc(Cl)c3)C3CCCCCC3)ccc(O)c2N1 [Example 68, 3-(3-Chlorophenethylamino)-N-cycloheptyl-N-(2-(2-(5-hydroxy-3-oxo-3,4-dihydro-2H-benzo[b][1,4]oxazin-8-yl)ethylamino)ethyl)propanamide bis(trifluoroacetate)] |
| 0.85 | Cl.O=C(CCOCCc1ccc(F)cc1)N(CCNCCc1ccc(O)c2[nH]c(=O)ccc12)C1CCCCC1 [Example 71, N-Cyclohexyl-3-(4-fluorophenethoxy)-N-(2-(2-(8-hydroxy-2-oxo-1,2-dihydroquinolin-5-yl)ethylamino)ethyl)propanamide hydrochloride] |
| 0.91 | CC[C@@H](C)N(CCNCCc1ccc(O)c2c1OCC(=O)N2)C(=O)CCNCCc1ccc(Cl)c(Cl)c1 [Example 58, (R)—N-sec-Butyl-3-(3,4-dichlorophenethylamino)-N-(2-(2-(5-hydroxy-3-oxo-3,4-dihydro-2H-benzo[b][1,4]oxazin-8-yl)ethylamino)ethyl)propanamide dihydrochloride] |
| 0.92 | Cl.O=C(CCOCCc1cccc(F)c1)N(CCNCCc1ccc(O)c2[nH]c(=O)ccc12)C1CCCCC1 [Example 72, N-Cyclohexyl-3-(3-fluorophenethoxy)-N-(2-(2-(8-hydroxy-2-oxo-1,2-dihydroquinolin-5-yl)ethylamino)ethyl)propanamide hydrochloride] |
| 0.84 | C[C@H](C1CCCCC1)N(CCNCCc1ccc(O)c2c1OCC(=O)N2)C(=O)CCNCCc1ccccc1 [Example 61, (R)—N-(1-Cyclohexylethyl)-N-(2-(2-(5-hydroxy-3-oxo-3,4-dihydro-2H-benzo[b][1,4]oxazin-8-yl)ethylamino)ethyl)-3-(phenethylamino)propanamide bis(trifluoroacetate)] |
| 0.99 | CCCC[C@@H](C)N(CCNCCc1ccc(O)c2c1OCC(=O)N2)C(=O)CCNCCc1cccc(F)c1F [Example 53, (R)-3-(2,3-Difluorophenethylamino)-N-(hexan-2-yl)-N-(2-(2-(5-hydroxy-3-oxo-3,4-dihydro-2H-benzo[b][1,4]oxazin-8-yl)ethylamino)ethyl)propanamide bis(trifluoroacetate)] |
| 0.99 | O=C1COc2c(CCNCCN(C(=O)CCNCCc3cc(F)cc(Cl)c3)C3CCCCCC3)ccc(O)c2N1 [Example 66, 3-(3-Chloro-5-fluorophenethylamino)-N-cycloheptyl-N-(2-(2-(5-hydroxy-3-oxo-3,4-dihydro-2H-benzo[b][1,4]oxazin-8-yl)ethylamino)ethyl)propanamide bis(trifluoroacetate)] |
| 0.94 | Cl.O=C(CCOCCc1ccccc1F)N(CCNCCc1ccc(O)c2[nH]c(=O)ccc12)C1CCCCC1 [Example 73, N-Cyclohexyl-3-(2-fluorophenethoxy)-N-(2-(2-(8-hydroxy-2-oxo-1,2-dihydroquinolin-5-yl)ethylamino)ethyl)propanamide hydrochloride] |
| 0.91 | CCCC[C@@H](C)N(CCNCCc1ccc(O)c2c1OCC(=O)N2)C(=O)CCNCCc1cc(C)ccc1F [Example 56, (R)-3-(2-Fluoro-5-methylphenethylamino)-N-(hexan-2-yl)-N-(2-(2-(5-hydroxy-3-oxo-3,4-dihydro-2H-benzo[b][1,4]oxazin-8-yl)ethylamino)ethyl)propanamide bis(trifluoroacetate)] |

More lines, now with the values behind:

| Compound | β2 Int Act |
| --- | --- |
| CCCC[C@@H](C)N(CCNCCc1ccc(O)c2c1OCC(=O)N2)C(=O)CCNCCc1cc(F)cc(Cl)c1 [Example 50, (R)-3-(3-Chloro-5-fluorophenethylamino)-N-(hexan-2-yl)-N-(2-(2-(5-hydroxy-3-oxo-3,4-dihydro-2H-benzo[b][1,4]oxazin-8-yl)ethylamino)ethyl)propanamide bis(trifluoroacetate)] | 0.89 |
| O=C1COc2c(CCNCCN(C(=O)CCNCCc3cccc(Cl)c3F)C3CCCCC3)ccc(O)c2N1 [Example 39, 3-(3-Chloro-2-fluorophenethylamino)-N-cyclohexyl-N-(2-(2-(5-hydroxy-3-oxo-3,4-dihydro-2H-benzo[b][1,4]oxazin-8-yl)ethylamino)ethyl)propanamide bis(trifluoroacetate)] | 0.98 |
| O=C1COc2c(CCNCCN(C(=O)CCNCCc3ccccc3)C3CCCCC3)ccc(O)c2N1 [Example 23, N-Cyclohexyl-N-(2-(2-(5-hydroxy-3-oxo-3,4-dihydro-2H-benzo[b][1,4]oxazin-8-yl)ethylamino)ethyl)-3-(phenethylamino)propanamide bis(trifluoroacetate)] | 0.79 |
| O=C1COc2c(CCNCCN(C(=O)CCNCCc3ccc(F)c(Cl)c3)C3CCCCC3)ccc(O)c2N1 [Example 37, 3-(3-Chloro-4-fluorophenethylamino)-N-cyclohexyl-N-(2-(2-(5-hydroxy-3-oxo-3,4-dihydro-2H-benzo[b][1,4]oxazin-8-yl)ethylamino)ethyl)propanamide bis(trifluoroacetate)] | 0.89 |
| CCCC[C@@H](C)N(CCNCCc1ccc(O)c2c1OCC(=O)N2)C(=O)CCNCCc1ccc(Cl)cc1 [Example 45, (R)-3-(4-Chlorophenethylamino)-N-(hexan-2-yl)-N-(2-(2-(5-hydroxy-3-oxo-3,4-dihydro-2H-benzo[b][1,4]oxazin-8-yl)ethylamino)ethyl)propanamide bis(trifluoroacetate)] | 0.89 |
| CCCC[C@@H](C)N(CCNCCc1ccc(O)c2c1OCC(=O)N2)C(=O)CCNCCc1ccc(F)c(C)c1 [Example 47, (R)-3-(4-Fluoro-3-methylphenethylamino)-N-(hexan-2-yl)-N-(2-(2-(5-hydroxy-3-oxo-3,4-dihydro-2H-benzo[b][1,4]oxazin-8-yl)ethylamino)ethyl)propanamide bis(trifluoroacetate)] | 0.89 |
| O=C1COc2c(CCNCCN(C(=O)CCNCCc3ccccc3)C3CCCCCC3)ccc(O)c2N1 [Example 24, N-Cycloheptyl-N-(2-(2-(5-hydroxy-3-oxo-3,4-dihydro-2H-benzo[b][1,4]oxazin-8-yl)ethylamino)ethyl)-3-(phenethylamino)propanamide bis(trifluoroacetate)] | 0.85 |
| O=C1COc2c(CCNCCN(C(=O)CCNCCc3ccccc3Cl)C3CCCCC3)ccc(O)c2N1 [Example 28, 3-(2-Chlorophenethylamino)-N-cyclohexyl-N-(2-(2-(5-hydroxy-3-oxo-3,4-dihydro-2H-benzo[b][1,4]oxazin-8-yl)ethylamino)ethyl)propanamide bis(trifluoroacetate)] | 0.86 |
| CCCC[C@@H](C)N(CCNCCc1ccc(O)c2c1OCC(=O)N2)C(=O)CCNCCc1ccc(F)c(F)c1 [Example 52, (R)-3-(3,4-Difluorophenethylamino)-N-(hexan-2-yl)-N-(2-(2-(5-hydroxy-3-oxo-3,4-dihydro-2H-benzo[b][1,4]oxazin-8-yl)ethylamino)ethyl)propanamide bis(trifluoroacetate)] | 0.95 |
